This is an account of results in patent US6274704A, “Peptides derived from the heparin binding domain of fibronectin” (Hisamitsu Pharmaceutical Co., Inc., priority 1996, dated 2001).

Assay [1] relates to A375 melanoma cell. In words: Cell adhesion inhibition activity of synthetic peptides (cell suspension includes the peptide). Format: cell-based. The following applies: Concentration 200 μg/ml; adhesion to fibronectin-coated plate, 60 minutes, 0.2% DMSO. As for the experimental part:
The above synthetic peptides were used in this experiment after being dissolved in dimethyl sulfoxide (DMSO: Wako Jyunyaku Co.). To adjust a condition of each experiment to the same, DMSO was added into phosphate buffers containing urea-non-treated Hep 2 fragment, urea-treated Hep 2 fragment, GRGDSP peptide and phosphate buffer itself as a control, respectively. The concentration of DMSO of each experiment was adjusted to 0.2% of final concentration. Inhibition activity against cell adhesion was evaluated according to the method of Fukai et al. (Biochem. Biophys. Res. Commun., 220, 394-398, 1996). In other words, the inhibition activity against cell adhesion of A375 melanoma cell to a plate was measured under the condition with or without the above various synthetic peptides. A375 melanoma cell (American Type Culture Collection: ATCC) was suspended in Dulbecco's modified eagle medium (DMEM: Gibuco Co.) including 0.1% Ovalbumin (Wako Jyunyaku Co.) to be a concentration of 2×10^5 cells/ml. Before preparing cell suspension, a plate was coated with fibronectin according to the method of Miekka et al. Specifically, phosphate buffer containing 10 μg/ml of fibronectin (FN) was prepared and 100 μl of the resultant phosphate buffer containing fibronectin was added into each well of a 96-well plate and then the plate was incubated at 37° C., 5% CO2 concentration for 60 minutes before being washed with phosphate buffer three times. Fibronectin (FN) was purified according to the method of Miekka et al. (Thromb. Res., 27, 1-14, 1982). One hundred (100) μl of the above cell suspension was added into each well of the plate and the plate was incubated at 37° C., 5% CO2 concentration for 60 minutes (Control was without any synthetic peptide). After fixing cells in each well with 5% of formaldehyde (Wako Jyunyaku Co.), non adhesion cells were removed and calls in five areas selected at random in each well were counted by the use of a microscope.
The addition of Hep 2 fragment and each peptide was carried out by the step in which a solution containing Hep 2 fragment or each peptides dissolved with high concentration was added to the cell suspension to obtain the final concentration of Hep 2 fragment or each peptides shown in Table 1.

The test system of assay [2] is A375 melanoma cell. In words: Cell adhesion inhibition activity (plate coated with fibronectin solution containing KLH modified synthetic peptide). Format: cell-based. The following applies: Experiment 2, KLH modified peptides coated with fibronectin, FIG. 3. The procedure: The above various KLH modified synthetic peptides were added to a solution containing fibronectin to obtain a given concentration, then the procedure of Experiment 1 were repeated with the exception that the resultant solution were added into 96-well plate to coat it. The experiment without any synthetic peptide is a control (the concentration of a peptide was 0 μg/m 1).

Another assay relates to melanoma cell. The following applies: in vivo; cited from earlier work.

Ends that are not written are not given here.

“III 13-3: peptide consisting of SEQ ID NO:6, part of Hep 2 fragment (SYTITGLQPGTDYKIYLYTLNDNAR)”: the “Cell adhesion inhibition activity” value in the assay on A375 melanoma cell [1] was 9%.
Same read-out and setting: then “III 13-1: peptide consisting of SEQ ID NO:4, part of Hep 2 fragment (NVSPPRRARVTDATETTITISWRTKTETI)”, with 4%; and “III 12-2: peptide consisting of SEQ ID NO:2, part of Hep 2 fragment (INLAPDSSSVVVSGLMVATKWE)”, with 13%.
Still for that read-out and setting: then “III 12-1: peptide consisting of SEQ ID NO:1, part of Hep 2 fragment (AIPAPTDLKFTQVTPTSLSAQWTPPNVQLTG)”, with 11%; and “III 14-1: peptide consisting of SEQ ID NO:7, part of Hep 2 fragment (NLRFLATTPNSLLVSWQPPRARITGYIIK)”, with 11%.
“III 14-2B: peptide of sequence ID NO:11, a part of peptide III 14-2; tested KLH modified (LEPGTEYTIYVIALKNNQK; also: KLH conjugated)”: in the assay on A375 melanoma cell [2], the “cell adhesion inhibition activity (in words)” value was “the same strong cell adhesion inhibition activity as that of the peptide III 14-2”.
Same read-out and setting: then “III 14-2C: peptide of sequence ID NO:12, a part of peptide III 14-2; tested KLH modified (YTIYVIALKNNQK; also: KLH conjugated)”, with “the same strong cell adhesion inhibition activity as that of the peptide III 14-2”.
For “III 13-2: peptide consisting of SEQ ID NO:5, part of Hep 2 fragment (TGFQVDAVPANGQTPIQRTIKPDVR)”, the “Cell adhesion inhibition activity” value in the assay on A375 melanoma cell [1] was 11%.
Still for that read-out and setting: then “III 12-3: peptide consisting of SEQ ID NO:3, part of Hep 2 fragment (VSVYALKDTLTSRPAQGVVTTLE)”, with 7%.
Regarding GRGDS, the “inhibition of experimental metastasis of melanoma cell to lung” value in the assay with melanoma cell is listed as “inhibits experimental metastasis of melanoma cell to lung”.
In the case of “III 14-2A: peptide of sequence ID NO:10, a part of peptide III 14-2; tested KLH modified (RPRPGVTEATITG; also: KLH conjugated)”, in the assay on A375 melanoma cell [2], the “cell adhesion inhibition activity (in words)” value is on record as “very little cell adhesion inhibition activity”.
